Here are results for 26 molecules from patent US12365656B2, “Oxazolidinone compounds and methods of use thereof as antibacterial agents” (priority 2019, dated 2025).

Common to all, as to type: cell-based
Experiment [1] concerns Mycobacterium tuberculosis (Mtb-GFP; H37Rv pMSP12::GFP). Description: microbe, parasite or virus in culture. The settings on record: for MIC: Mycobacterium tuberculosis, H37RV, 168 h, pH 6.8, read-out: Mtb Cho MITC95.
The test system is the same in experiment [2]. Description: microbe, parasite or virus in culture. To be noted: for MIC: Mycobacterium tuberculosis, H37RV, 168 h, pH 6.8, read-out: Mtb Glu MITC95.
For experiment [3], the system named is mitochondrial protein synthesis in HepG2 cells. The experiment in a line: Mitochondrial protein synthesis assay. The settings on record: 4 days, COX-1 relative to SDH-A / Janus Green, In Cell ELISA, read-out: MPS IC50. In general terms: ELISA stands for enzyme-linked immunosorbent assay.

Converted amounts (≈) assume the structure as drawn. Where two headings read alike, the source gives them in different places. Bounds are passed on as bounds.

With “4-{2,6-difluoro-4-[(5R)-5-(hydroxymethyl)-2-oxo-1,3-oxazolidin-3-yl]phenyl}-4-hydroxy-1λ^6-thiane-1,1-dione [Example 34]”, the “Mtb Cho MITC95” value in experiment [1] (cholesterol carbon source, pH 6.8, 7-day growth, GFP fluorescence, lowest concentration inhibiting 95% of growth) was 25 µM. Further, the “Mtb Glu MITC95” value in experiment [2] (glucose carbon source, pH 6.8, 7-day growth, GFP fluorescence, lowest concentration inhibiting 95% of growth) was 25 µM. Besides, in experiment [3], the half-maximal inhibitory concentration (IC50) (in general, the concentration at which inhibition is half-maximal) was greater than 100 µM.

As to `CS(=O)(=O)c1ccc(-c2ccc(N3C[C@H](CO)OC3=O)cc2F)cc1` [Example 1, (5R)-3-[2-fluoro-4′-(methylsulfonyl)biphenyl-4-yl]-5-(hydroxymethyl)-1,3-oxazolidin-2-one], the MIC in experiment [1] was 1.2 µM (≈ 0.438 µg/mL); in experiment [2] it was 1 µM (≈ 0.365 µg/mL). In experiment [3] (Homo sapiens, 96 h), the IC50 was found to be 7 µM.

As for `O=C1O[C@@H](CO)CN1c1cc(F)c(C2(F)CCS(=O)(=O)CC2)c(F)c1` [Example 2, (5R)-3-[3,5-difluoro-4-(4-fluoro-1,1-dioxidotetrahydro-2H-thiopyran-4-yl)phenyl]-5-(hydroxymethyl)-1,3-oxazolidin-2-one], the values for the MIC in experiment [1] and in experiment [2] were 2.2 µM (≈ 0.835 µg/mL) and 1.9 µM (≈ 0.721 µg/mL), respectively. Besides, in experiment [3] (Homo sapiens, 96 h), the half-maximal inhibitory concentration (IC50) is greater than 100 µM.

Take `CSc1ccc(-c2ccc(N3C[C@H](CO)OC3=O)cc2F)cc1` [Example 4, (5R)-3-[2-fluoro-4′-(methylsulfanyl)[1,1′-biphenyl]-4-yl]-5-(hydroxymethyl)-1,3-oxazolidin-2-one]: the MIC in experiment [1] is 0.24 µM (≈ 0.08 µg/mL); in experiment [2], 0.21 µM (≈ 0.07 µg/mL). In addition, the half-inhibitory concentration (IC50) in experiment [3] (Homo sapiens, 96 h) was greater than 100 µM.

Consider `O=C1O[C@@H](CO)CN1c1ccc(-c2ccn3ncnc3c2)c(F)c1` [Example 8, (5R)-3-[3-fluoro-4-([1,2,4]triazolo[1,5-a]pyridin-7-yl)phenyl]-5-(hydroxymethyl)-1,3-oxazolidin-2-one], for which the results for the MIC in experiment [1] and in experiment [2] were 1.8 µM (≈ 0.591 µg/mL) and 1.5 µM (≈ 0.492 µg/mL), respectively. Further, in experiment [3] (Homo sapiens, 96 h), the IC50 was determined as 3.7 µM.

`O=C1O[C@@H](CO)CN1c1ccc(-c2ccc(OCCO)cc2)c(F)c1` [Example 12, (5R)-3-[2-fluoro-4'-(2-hydroxyethoxy)[1,1′-biphenyl]-4-yl]-5-(hydroxymethyl)-1,3-oxazolidin-2-one]: the MIC in experiment [1] is 0.39 µM (≈ 0.135 µg/mL); in experiment [2] it was 0.78 µM (≈ 0.271 µg/mL). Moreover, the IC50 in experiment [3] (Homo sapiens, 96 h) is 19 µM.

With `CN1CC(C)(S(=O)(=O)c2ccc(-c3ccc(N4C[C@H](CO)OC4=O)cc3F)cc2)C1` [Example 14, (5R)-3-[4'-(1,3-dimethylazetidine-3-sulfonyl)-2-fluoro[1,1′-biphenyl]-4-yl]-5-(hydroxymethyl)-1,3-oxazolidin-2-one], the MIC in experiment [1] and in experiment [2] was 0.78 µM (≈ 0.339 µg/mL) in each case. Moreover, the IC50 in experiment [3] (Homo sapiens, 96 h) is 23 µM.

`O=C1O[C@@H](CO)CN1c1cc(F)c(C2=CCS(=O)(=O)CC2)c(F)c1` [Example 15, 4-{2,6-difluoro-4-[(5R)-5-(hydroxymethyl)-2-oxo-1,3-oxazolidin-3-yl]phenyl}-3,6-dihydro-1λ6-thiopyran-1,1(2H)-dione]: the MIC in experiment [1] and in experiment [2] was 1.6 µM (≈ 0.575 µg/mL) each time. Moreover, the IC50 in experiment [3] (Homo sapiens, 96 h) is greater than 100 µM.

In the case of `N#CC1(c2c(F)cc(N3C[C@H](CO)OC3=O)cc2F)CCS(=O)(=O)CC1` [Example 16, 4-{2,6-difluoro-4-[(5R)-5-(hydroxymethyl)-2-oxo-1,3-oxazolidin-3-yl]phenyl}-1,1-dioxo-1λ6-thiane-4-carbonitrile], the MIC in experiment [1] and in experiment [2] was 1.6 µM (≈ 0.618 µg/mL) throughout. In addition, in experiment [3] (Homo sapiens, 96 h), the IC50 was 50 µM.

On to `O=C1O[C@@H](CO)CN1c1cc(F)c(N2CC3CS(=O)(=O)CC3C2)c(F)c1` (stereo partly drawn) [Example 17, 5-{2,6-difluoro-4-[(5R)-5-(hydroxymethyl)-2-oxo-1,3-oxazolidin-3-yl]phenyl}hexahydro-2λ6-thieno[3,4-c]pyrrole-2,2(1H)-dione], for which the results for the MIC in experiment [1] and in experiment [2] were 3.1 µM (≈ 1.2 µg/mL) and 2.3 µM (≈ 0.893 µg/mL), respectively. Also, the IC50 in experiment [3] (Homo sapiens, 96 h) was greater than 100 µM.

Turning to `CC(=O)N1CCN(c2c(F)cc(N3C[C@H](CO)OC3=O)cc2F)C2CC21` (stereo partly drawn) [Example 18, (5R)-3-[4-(5-acetyl-2,5-diazabicyclo[4.1.0]heptan-2-yl)-3,5-difluorophenyl]-5-(hydroxymethyl)-1,3-oxazolidin-2-one], the MIC in experiment [1] and in experiment [2] was 3.1 µM (≈ 1.14 µg/mL) each time. Also, the half-maximal inhibitory concentration (IC50) in experiment [3] (Homo sapiens, 96 h) was greater than 100 µM.

For `Cc1nnc2cc(-c3ccc(N4C[C@H](CO)OC4=O)cc3F)ccn12` [Example 19, (5R)-3-[3-fluoro-4-(3-methyl[1,2,4]triazolo[4,3-a]pyridin-7-yl)phenyl]-5-(hydroxymethyl)-1,3-oxazolidin-2-one], the MIC in experiment [1] and in experiment [2] was 1.2 µM (≈ 0.411 µg/mL) in each case. Moreover, in experiment [3] (Homo sapiens, 96 h), the concentration for half-maximal inhibition (IC50) turned out to be 18 µM.

Turning to `CN1CC(S(=O)(=O)c2ccc(-c3ccc(N4C[C@H](CO)OC4=O)cc3F)cc2)C1` [Example 20, (5R)-3-[2-fluoro-4′-(1-methylazetidine-3-sulfonyl)[1,1′-biphenyl]-4-yl]-5-(hydroxymethyl)-1,3-oxazolidin-2-one], the MIC in experiment [1] and in experiment [2] was 0.39 µM (≈ 0.164 µg/mL) each time. For the same molecule, the IC50 in experiment [3] (Homo sapiens, 96 h) was found to be 7.4 µM.

For the molecule `O=C1O[C@@H](CO)CN1c1cc(F)c(N2CCN(C(=O)C3CC3)C3CC32)c(F)c1` (stereo partly drawn) [Example 21, (5R)-3-{4-[5-(cyclopropanecarbonyl)-2,5-diazabicyclo[4.1.0]heptan-2-yl]-3,5-difluorophenyl}-5-(hydroxymethyl)-1,3-oxazolidin-2-one], the MIC in experiment [1] came out at 3.1 µM (≈ 1.22 µg/mL); in experiment [2], 6.3 µM (≈ 2.48 µg/mL). For the same molecule, in experiment [3] (Homo sapiens, 96 h), the IC50 was greater than 13 µM.

Turning to `O=C1O[C@@H](CO)CN1c1cc(F)c(N2CCS(=O)(=O)CC2)c(F)c1` [Example 22, 4-{2,6-difluoro-4-[(5R)-5-(hydroxymethyl)-2-oxo-1,3-oxazolidin-3-yl]phenyl}-1λ^6-thiomorpholine-1,1-dione], the MIC in experiment [1] is 6.3 µM (≈ 2.28 µg/mL); in experiment [2], 3.9 µM (≈ 1.41 µg/mL). In addition, in experiment [3] (Homo sapiens, 96 h), the concentration for half-maximal inhibition (IC50) is greater than 100 µM.

As to `CN1CC(C)(S(=O)(=O)c2ccc(-c3ccc(N4C[C@H](CO)OC4=O)cc3)cc2)C1` [Example 23, (5R)-3-[4'-(1,3-dimethylazetidine-3-sulfonyl)[1,1'-biphenyl]-4-yl]-5-(hydroxymethyl)-1,3-oxazolidin-2-one], the MIC in experiment [1] was determined as 3.1 µM (≈ 1.29 µg/mL); in experiment [2], 1.6 µM (≈ 0.666 µg/mL). Further, in experiment [3] (Homo sapiens, 96 h), the half-maximal inhibitory concentration (IC50) was greater than 100 µM.

With `O=C1O[C@@H](CO)CN1c1ccc(C2(F)CCS(=O)(=O)CC2)c(F)c1` [Example 24, 4-fluoro-4-[2-fluoro-4-[(5R)-5-(hydroxymethyl)-2-oxo-1,3-oxazolidin-3-yl]phenyl}-1λ^6-thiane-1,1-dione], the MIC in experiment [1] and in experiment [2] was 6.3 µM (≈ 2.28 µg/mL) in each case. Also, the IC50 in experiment [3] (Homo sapiens, 96 h) was greater than 50 µM.

As for `O=C1O[C@@H](CO)CN1c1cc(F)c(C2(F)CCS(=O)(=O)CC2)c(F)c1F` [Example 25, 4-fluoro-4-{2,3,6-trifluoro-4-[(5R)-5-(hydroxymethyl)-2-oxo-1,3-oxazolidin-3-yl]phenyl}-1λ^6-thiane-1,1-dione], the MIC in experiment [1] and in experiment [2] was 6.3 µM (≈ 2.5 µg/mL) throughout. Besides, the IC50 in experiment [3] (Homo sapiens, 96 h) is greater than 100 µM.

On to `Cn1cc(-c2ccc(N3C[C@H](CO)OC3=O)cc2F)ccc1=O` [Example 26, 5-{2-fluoro-4-[(5R)-5-(hydroxymethyl)-2-oxo-1,3-oxazolidin-3-yl]phenyl}-1-methylpyridin-2(1H)-one], for which the MIC in experiment [1] and in experiment [2] was 6.3 µM (≈ 2.01 µg/mL) in each case. In experiment [3] (Homo sapiens, 96 h), the IC50 stood at 28 µM.

With `CN=S1(=O)CCN(c2c(F)cc(N3C[C@H](CO)OC3=O)cc2F)CC1` [Example 27, 4-{2,6-difluoro-4-[(5R)-5-(hydroxymethyl)-2-oxo-1,3-oxazolidin-3-yl]phenyl}-1-(methylimino)-1λ^6-thiomorpholin-1-one], the MIC in experiment [1] and in experiment [2] was 6.3 µM (≈ 2.37 µg/mL) each time. In addition, in experiment [3] (Homo sapiens, 96 h), the IC50 is greater than 100 µM.

Turning to `CS(=O)(=O)c1ccc(-c2ccc(N3C[C@H](CO)OC3=O)cc2)cc1` [Example 28, (5R)-5-(hydroxymethyl)-3-[4′-(methanesulfonyl)[1,1′-biphenyl]-4-yl]-1,3-oxazolidin-2-one], the MIC in experiment [1] and in experiment [2] was 1.6 µM (≈ 0.556 µg/mL) each time. The IC50 in experiment [3] (Homo sapiens, 96 h) was determined as 32 µM.

In the case of `O=C1O[C@@H](CO)CN1c1ccc(-c2ccc(S(=O)(=O)C3CCC3)cc2)c(F)c1` [Example 29, (5R)-3-[4′-(cyclobutanesulfonyl)-2-fluoro[1,1′-biphenyl]-4-yl]-5-(hydroxymethyl)-1,3-oxazolidin-2-one], the MIC in experiment [1] and in experiment [2] was 3.1 µM (≈ 1.26 µg/mL) each time. Besides, the 50% inhibitory concentration (IC50) in experiment [3] (Homo sapiens, 96 h) was greater than 100 µM.

As for `O=C1O[C@@H](CO)CN1c1cc(F)c(C2(F)CCS(=O)(=O)CC2)c(Cl)c1` [Example 30, 4-{2-chloro-6-fluoro-4-[(5R)-5-(hydroxymethyl)-2-oxo-1,3-oxazolidin-3-yl]phenyl}-4-fluoro-1λ^6-thiane-1,1-dione], the MIC in experiment [1] was 13 µM (≈ 5.15 µg/mL); in experiment [2], 6.3 µM (≈ 2.49 µg/mL). In addition, the IC50 in experiment [3] (Homo sapiens, 96 h) was greater than 100 µM.

For the molecule `O=C1O[C@@H](CO)CN1c1ccc(C2(F)CCS(=O)(=O)CC2)c(Cl)c1` [Example 31, 4-{2-chloro-4-[(5R)-5-(hydroxymethyl)-2-oxo-1,3-oxazolidin-3-yl]phenyl}-4-fluoro-1λ^6-thiane-1,1-dione], the MIC in experiment [1] and in experiment [2] was 13 µM (≈ 4.91 µg/mL) in each case. Moreover, the half-inhibitory concentration (IC50) in experiment [3] (Homo sapiens, 96 h) was greater than 100 µM.

Consider `O=C1O[C@@H](CO)CN1c1ccc(-c2ccc(S(=O)(=O)C3CC3)cc2)cc1` [Example 32, (5R)-3-[4′-(cyclopropanesulfonyl)[1,1′-biphenyl]-4-yl]-5-(hydroxymethyl)-1,3-oxazolidin-2-one], for which the MIC in experiment [1] and in experiment [2] was 3.1 µM (≈ 1.16 µg/mL) each time. Besides, in experiment [3] (Homo sapiens, 96 h), the half-inhibitory concentration (IC50) was determined as 30 µM.

Turning to `O=C1O[C@@H](CO)CN1c1ccc(-c2ccc(S(=O)(=O)C3COC3)cc2)cc1` [Example 33, (5R)-5-(hydroxymethyl)-3-[4′-(oxetane-3-sulfonyl)[1,1′-biphenyl]-4-yl]-1,3-oxazolidin-2-one], the MIC is 2.3 µM (≈ 0.896 µg/mL) in experiment [1] and 3.1 µM (≈ 1.21 µg/mL) in experiment [2]. Besides, the half-inhibitory concentration (IC50) in experiment [3] (Homo sapiens, 96 h) was 9.7 µM.
